Measured values reported in patent US20240124545A1, “COMPOSITIONS AND METHODS RELATING TO THE TREATMENT OF DISEASES” (ILC THERAPEUTICS LIMITED, priority 2021, published 2024).
“And” between values parts separate entries of the source, which are not always exact repeats. Equal values may be shown once. Read-outs that look alike come from different tables or passages of the source.

What was measured:
HeLa-CD4-βgal cells [1] = system: HeLa-CD4-βgal cells
HRSV Long strain = experiment: HRSV infectivity assay, immunostaining readout in HEp-2 cells; assay type: cell-based, human respiratory syncytial virus (HRSV) Long strain
HIV-1 LAI [2] = conditions: for HIV Infectivity in HeLa CD4 βgal cells (β-gal units) - antiviral control / HIV Infectivity in HeLa CD4 βgal cells, percentage of vehicle - antiviral control: single data point
in vitro = conditions: human
HIV-1 LAI [3] = experiment: microbe, parasite or virus in culture; conditions: Human immunodeficiency virus 1, 48 h, read-out: IC50 (infectivity), Control HIV Inhibitors
HeLa-CD4-βgal cells [4] = experiment: XTT viability (cytotoxicity) assay, uninfected HeLa-CD4-βgal cells (Experiment 4); conditions: for Viability of HeLa-CD4-βgal cells in the XTT assay (percentage values): 48 hours, single data point; for Viability of Uninfected HeLa-CD4-β gal Cells (A490): XTT, raw absorbance 490 nm

In the case of `C[S+](C)[O-]` [DMSO], the “Viability of Uninfected HeLa-CD4-β gal Cells (% vehicle alone), controls” value (HeLa-CD4-βgal cells [1]) is reported as −0.5 ± 0.1 % vehicle alone.
In the case of `NC(=O)c1ncn([C@@H]2O[C@H](CO)[C@@H](O)[C@H]2O)n1` [Rib, ribavirin, reference compound], the “HRSV infection blocked by antiviral control” value (HRSV Long strain; 50 μM) is reported as “over 99%”, the “HRSV Infectivity in HEp-2 cells (% vehicle)” value (HRSV Long strain; control antiviral 50 μM, 72 hours) is reported as −4.7 % vehicle and the “HRSV Infectivity in HEp-2 cells - Raw OD- Absorbance (490 nm)” value (HRSV Long strain; control antiviral 50 μM, duplicate A490 values) is reported as 0.195 and 0.176.
For `CC(C)OC(=O)[C@H](C)N[P@](=O)(CO[C@H](C)Cn1cnc2c(N)ncnc21)Oc1ccccc1` [TAF, tenofovir alafenamide], the “HIV Infectivity in HeLa CD4 βgal cells (β-gal units) - antiviral control” value (HIV-1 LAI [2]; 0.00005 μM) was 1,043,762 RLU, the “HIV Infectivity in HeLa CD4 βgal cells, percentage of vehicle - antiviral control” value (HIV-1 LAI [2]; 0.00005 μM) was 91.9 % vehicle and the “HIV Infectivity in HeLa CD4 βgal cells (β-gal units) - antiviral control” value (HIV-1 LAI [2]; 0.0003 μM) was 1,038,889 RLU. For the same compound, the “HIV Infectivity in HeLa CD4 βgal cells, percentage of vehicle - antiviral control” value (HIV-1 LAI [2]; 0.0003 μM) was 91.5 % vehicle, the “HIV Infectivity in HeLa CD4 βgal cells (β-gal units) - antiviral control” value (HIV-1 LAI [2]; 0.001 μM) was 935,932 RLU and the “HIV Infectivity in HeLa CD4 βgal cells, percentage of vehicle - antiviral control” value (HIV-1 LAI [2]; 0.001 μM) was 82.4 % vehicle. The “HIV Infectivity in HeLa CD4 βgal cells (β-gal units) - antiviral control” value (HIV-1 LAI [2]; 0.006 μM) was 575,616 RLU, the “HIV Infectivity in HeLa CD4 βgal cells, percentage of vehicle - antiviral control” value (HIV-1 LAI [2]; 0.006 μM) was 50.6 % vehicle and the “HIV Infectivity in HeLa CD4 βgal cells (β-gal units) - antiviral control” value (HIV-1 LAI [2]; 0.03 μM) was 145,403 RLU. For the same compound, the “HIV Infectivity in HeLa CD4 βgal cells, percentage of vehicle - antiviral control” value (HIV-1 LAI [2]; 0.03 μM) was 12.6 % vehicle, the “HIV Infectivity in HeLa CD4 βgal cells (β-gal units) - antiviral control” value (HIV-1 LAI [2]; 0.2 μM) was 6,426 RLU and the “HIV Infectivity in HeLa CD4 βgal cells, percentage of vehicle - antiviral control” value (HIV-1 LAI [2]; 0.2 μM) was 0.3 % vehicle. The “HIV infection blocked by control antivirals” value (HIV-1 LAI [2]; 0.5 μM) was about 100%, the “HIV Infectivity in HeLa CD4 βgal cells (β-gal units) - antiviral control” value (HIV-1 LAI [2]; 0.8 μM) was 2,064 RLU and the “HIV Infectivity in HeLa CD4 βgal cells, percentage of vehicle - antiviral control” value (HIV-1 LAI [2]; 0.8 μM) was −0.1 % vehicle. The “HIV Infectivity in HeLa CD4 βgal cells (β-gal units) - antiviral control” value (HIV-1 LAI [2]; 4.0 μM) was 1,893 RLU, the “HIV Infectivity in HeLa CD4 βgal cells, percentage of vehicle - antiviral control” value (HIV-1 LAI [2]; 4.0 μM) was −0.1 % vehicle and the “HIV Infectivity in HeLa CD4 βgal cells (β-gal units) - antiviral control” value (HIV-1 LAI [2]; 20 μM) was 1,475 RLU. For the same compound, the “HIV Infectivity in HeLa CD4 βgal cells, percentage of vehicle - antiviral control” value (HIV-1 LAI [2]; 20 μM) was −0.1 % vehicle, the “HIV Infectivity in HeLa-CD4-βgal cells (% vehicle)” value (HIV-1 LAI [2]; control antiviral 0.5 μM, duplicate data points) was 0.0 % vehicle and the “HIV Infectivity in HeLa CD4 βgal cells (β-galactosidase units)” value (HIV-1 LAI [2]; control antiviral 0.5 μM, individual values) was 3,376 RLU and 3,509 RLU. For the same compound, the CC50 at 48 h (in vitro) was over 20000 nM, the IC50 (HIV-1 LAI [3]) was 8 nM and the “Viability of HeLa-CD4-βgal cells in the XTT assay (percentage values)” value (from here on “Viability … (percentage values)”) (HeLa-CD4-βgal cells [4]; control antiviral 0.00005 μM) was 111.5%. For the same compound, the “Viability of Uninfected HeLa-CD4-β gal Cells (A490)” value (from here on “Viability … (A490)”) (HeLa-CD4-βgal cells [4]; control antiviral 0.00005 μM) was 0.951, the “Viability … (percentage values)” value (HeLa-CD4-βgal cells [4]; control antiviral 0.0003 μM) was 101.3% and the “Viability … (A490)” value (HeLa-CD4-βgal cells [4]; control antiviral 0.0003 μM) was 0.872. The “Viability … (percentage values)” value (HeLa-CD4-βgal cells [4]; control antiviral 0.001 μM) was 104.6%, the “Viability … (A490)” value (HeLa-CD4-βgal cells [4]; control antiviral 0.001 μM) was 0.897 and the “Viability … (percentage values)” value (HeLa-CD4-βgal cells [4]; control antiviral 0.006 μM) was 109.1%. For the same compound, the “Viability … (A490)” value (HeLa-CD4-βgal cells [4]; control antiviral 0.006 μM) was 0.932, the “Viability … (percentage values)” value (HeLa-CD4-βgal cells [4]; control antiviral 0.03 μM) was 103.2% and the “Viability … (A490)” value (HeLa-CD4-βgal cells [4]; control antiviral 0.03 μM) was 0.886. The “Viability … (percentage values)” value (HeLa-CD4-βgal cells [4]; control antiviral 0.2 μM) was 104.5%, the “Viability … (percentage values)” value (HeLa-CD4-βgal cells [4]; control antiviral 0.8 μM) was 101.5% and the “Viability … (A490)” value (HeLa-CD4-βgal cells [4]; control antiviral 0.8 μM) was 0.873. For the same compound, the “Viability … (percentage values)” value (HeLa-CD4-βgal cells [4]; control antiviral 4.0 μM) was 104.1%, the “Viability … (A490)” value (HeLa-CD4-βgal cells [4]; control antiviral 4.0 μM) was 0.894 and the “Viability … (percentage values)” value (HeLa-CD4-βgal cells [4]; control antiviral 20 μM) was 88.2%. The “Viability … (A490)” value (HeLa-CD4-βgal cells [4]; control antiviral 20 μM) was 0.770.
